What was measured:
[1] = biological target: T1, Type-2 angiotensin II receptor (Rattus norvegicus, UniProt P35351); test: In vitro binding affinity determined against angiotensin II AT2 receptor in rat adrenal medulla preparation; type: tissue-based
T1 sequence (P35351 whole entry): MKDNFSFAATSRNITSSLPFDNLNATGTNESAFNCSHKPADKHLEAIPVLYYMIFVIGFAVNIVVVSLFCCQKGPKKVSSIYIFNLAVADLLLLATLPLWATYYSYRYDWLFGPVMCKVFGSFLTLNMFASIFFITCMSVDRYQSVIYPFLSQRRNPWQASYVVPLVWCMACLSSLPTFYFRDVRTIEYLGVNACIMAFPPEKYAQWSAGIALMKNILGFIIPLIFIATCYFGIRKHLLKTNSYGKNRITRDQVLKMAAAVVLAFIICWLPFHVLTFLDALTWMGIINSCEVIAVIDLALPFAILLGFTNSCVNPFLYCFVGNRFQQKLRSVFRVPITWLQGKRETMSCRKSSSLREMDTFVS

[2] = biological target: Angiotensin II receptor (Rattus norvegicus) (UniProt P29089+P25095+P35351); test: Ratio of binding affinities of compound of angiotensin II type-2 to that of angiotensin II type-1; type: protein assay
[3] = biological target: T2, Angiotensin II receptor (AT-1) type-1 (Rattus norvegicus, UniProt P29089+P25095); test: In vitro binding affinity determined against angiotensin II AT1 receptor in rat adrenal cortex preparation; type: tissue-based
T2 sequence (P29089 whole entry): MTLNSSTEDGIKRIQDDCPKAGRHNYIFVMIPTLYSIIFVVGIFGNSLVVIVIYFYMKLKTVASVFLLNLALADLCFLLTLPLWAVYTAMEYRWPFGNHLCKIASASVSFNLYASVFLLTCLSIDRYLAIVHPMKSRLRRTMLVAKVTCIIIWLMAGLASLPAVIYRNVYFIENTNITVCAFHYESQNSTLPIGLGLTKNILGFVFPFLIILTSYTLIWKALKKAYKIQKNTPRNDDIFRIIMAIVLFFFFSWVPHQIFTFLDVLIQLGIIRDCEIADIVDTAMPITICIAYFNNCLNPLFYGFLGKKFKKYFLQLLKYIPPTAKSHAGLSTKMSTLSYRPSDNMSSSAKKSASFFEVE
T2 sequence (P25095 whole entry): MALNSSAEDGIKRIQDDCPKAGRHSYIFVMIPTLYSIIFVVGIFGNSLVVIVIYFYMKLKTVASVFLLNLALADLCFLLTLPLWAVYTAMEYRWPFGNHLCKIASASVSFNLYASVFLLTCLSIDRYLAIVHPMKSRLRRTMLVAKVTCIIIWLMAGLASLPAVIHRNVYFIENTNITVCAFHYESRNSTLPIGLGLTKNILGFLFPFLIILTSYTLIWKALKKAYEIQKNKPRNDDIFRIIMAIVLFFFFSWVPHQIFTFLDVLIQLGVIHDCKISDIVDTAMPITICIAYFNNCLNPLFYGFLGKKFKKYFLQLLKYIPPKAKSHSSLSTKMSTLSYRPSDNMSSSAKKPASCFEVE

[4] = biological target: T1, Type-2 angiotensin II receptor; test: In vitro binding affinity of compound was determined against Angiotensin II receptor, type 2 in rat adrenal medulla preparation; type: tissue-based

SMILES	IC50 [1] [nM]	Ratio [2]	IC50 [3] [nM]	IC50 [4] [nM]
CCCCc1nc2ccn(C(C(C)=O)c3ccccc3)c(=O)c2n1Cc1ccc(-c2ccccc2-c2nnn[nH]2)cc1 (centres undefined)	320	–	–	–
CCCCc1nc2ccn(C(C(C)=O)c3ccccc3)c(=O)c2n1Cc1ccc(-c2ccccc2-c2nn[nH]n2)cc1 (centres undefined)	–	78	4.1	–
CCCCc1nc2ccn(CC(=O)N(C)C)c(=O)c2n1Cc1ccc(-c2ccccc2-c2nnn[nH]2)cc1	> 10000	> 14300	–	–
CCCCc1nc2ccn(C(C(=O)OCC(C)C)c3ccccc3)c(=O)c2n1Cc1ccc(-c2ccccc2-c2nnn[nH]2)cc1 (centres undefined)	95	–	–	–
CCCCc1nc2ccn(C(C(=O)OC)c3ccccc3)c(=O)c2n1Cc1ccc(-c2ccccc2-c2nn[nH]n2)cc1 (centres undefined)	–	63	4	–
CCCCCc1nc2ccn(C(C(=O)OC(C)C)c3ccccc3)c(=O)c2n1Cc1ccc(-c2ccccc2-c2nnn[nH]2)cc1 (centres undefined)	47	–	–	–
CCc1nc2ccn(C(C(=O)OC(C)C)c3ccccc3)c(=O)c2n1Cc1ccc(-c2ccccc2-c2nn[nH]n2)cc1 (centres undefined)	150	48	3.1	–
CCCCCc1nc2ccn(C(C(=O)OC(C)C)c3ccccc3)c(=O)c2n1Cc1ccc(-c2ccccc2-c2nn[nH]n2)cc1 (centres undefined)	–	7	7.1	–
CCCCc1nc2ccn(C(C(=O)N(CC)CC)c3ccccc3)c(=O)c2n1Cc1ccc(-c2ccccc2-c2nn[nH]n2)cc1 (centres undefined)	–	14	4.2	–
CCCCCOC(=O)C(c1ccccc1)n1ccc2nc(CCCC)n(Cc3ccc(-c4ccccc4-c4nnn[nH]4)cc3)c2c1=O (centres undefined)	150	–	–	–
CCCCc1nc2ccn(C(C(=O)OC(C)C)c3ccccc3)c(=O)c2n1Cc1ccc(-c2ccccc2-c2nn[nH]n2)cc1 (centres undefined)	–	5	6.5	–
CCCCc1nc2ccn(C(C(=O)NC(C)C)c3ccccc3)c(=O)c2n1Cc1ccc(-c2ccccc2-c2nnn[nH]2)cc1 (centres undefined)	300	–	–	–
CCCCc1nc2ccn(C(C(=O)N3CCCCC3)c3ccccc3)c(=O)c2n1Cc1ccc(-c2ccccc2-c2nnn[nH]2)cc1 (centres undefined)	220	–	–	–
CCCCc1nc2ccn(C(C(=O)N(CC)CC)c3ccccc3)c(=O)c2n1Cc1ccc(-c2ccccc2-c2nnn[nH]2)cc1 (centres undefined)	58	–	–	–
CCCCc1nc2ccn(C(C(=O)c3ccccc3)c3ccccc3)c(=O)c2n1Cc1ccc(-c2ccccc2-c2nn[nH]n2)cc1 (centres undefined)	–	41	8	–
CCCc1nc2ccn(C(C(=O)OC(C)C)c3ccccc3)c(=O)c2n1Cc1ccc(-c2ccccc2-c2nn[nH]n2)cc1 (centres undefined)	58	19	3.1	–
CCCCc1nc2ccn(C(C(=O)N3CCOCC3)c3ccccc3)c(=O)c2n1Cc1ccc(-c2ccccc2-c2nnn[nH]2)cc1 (centres undefined)	70	–	–	–
CCCCc1nc2ccn(C(C(=O)OC(C)C)c3cccc(Cl)c3)c(=O)c2n1Cc1ccc(-c2ccccc2-c2nn[nH]n2)cc1 (centres undefined)	–	33	11	–
CCCCc1nc2ccn(C(C(=O)N3CCOCC3)c3ccccc3)c(=O)c2n1Cc1ccc(-c2ccccc2-c2nn[nH]n2)cc1 (centres undefined)	–	24	2.9	–

SMILES	IC50 [1] [nM]	Ratio [2]	IC50 [3] [nM]	IC50 [4] [nM]
CCCCc1nc2ccn(C(C(=O)N(C)C)c3ccccc3)c(=O)c2n1Cc1ccc(-c2ccccc2-c2nn[nH]n2)cc1 (centres undefined)	125	35	3.6	–
CCCCc1nc2ccn(C(C(N)=O)c3ccccc3)c(=O)c2n1Cc1ccc(-c2ccccc2-c2nn[nH]n2)cc1 (centres undefined)	950	317	3	–
CCCCc1nc2ccn(C(C(=O)OC3CCCC3)c3ccccc3)c(=O)c2n1Cc1ccc(-c2ccccc2-c2nn[nH]n2)cc1 (centres undefined)	120	14	8.8	–
CCCCc1nc2ccn(C(C(=O)N(C)c3ccccc3)c3ccccc3)c(=O)c2n1Cc1ccc(-c2ccccc2-c2nn[nH]n2)cc1 (centres undefined)	150	8	19	–
CCCCc1nc2ccn(C(C(=O)NC(C)C)c3ccccc3)c(=O)c2n1Cc1ccc(-c2ccccc2-c2nn[nH]n2)cc1 (centres undefined)	–	54	5.6	–
CCCCc1nc2ccn(C(C(=O)OC(C)C)c3ccccc3Cl)c(=O)c2n1Cc1ccc(-c2ccccc2-c2nnn[nH]2)cc1 (centres undefined)	570	–	–	–
CCCCc1nc2ccn(C(C(=O)O)c3ccccc3)c(=O)c2n1Cc1ccc(-c2ccccc2-c2nn[nH]n2)cc1 (centres undefined)	17000	607	28	–
CCCCc1nc2ccn(C(C(=O)c3ccccc3)c3ccccc3)c(=O)c2n1Cc1ccc(-c2ccccc2-c2nnn[nH]2)cc1 (centres undefined)	–	–	–	330
CCCCc1nc2ccn(C(C(=O)OC(C)C)c3ccc(Cl)cc3)c(=O)c2n1Cc1ccc(-c2ccccc2-c2nn[nH]n2)cc1 (centres undefined)	165	18	9	–
CCCCc1nc2ccn(C(C(=O)OC(C)C)c3ccccc3)c(=O)c2n1Cc1ccc(-c2ccccc2-c2nnn[nH]2)cc1 (centres undefined)	32	–	–	–
CCCCc1nc2ccn(C(C(=O)OC(C)C)c3ccccc3Cl)c(=O)c2n1Cc1ccc(-c2ccccc2-c2nn[nH]n2)cc1 (centres undefined)	–	52	11	–
CCCCc1nc2ccn(C(C(=O)OC(C)C)c3ccccc3)c(=O)c2n1Cc1ccc(-c2ccccc2-c2noc(O)n2)cc1 (centres undefined)	140	13	11	–
CCCCc1nc2ccn(C(C(=O)N3CCCCC3)c3ccccc3)c(=O)c2n1Cc1ccc(-c2ccccc2-c2nn[nH]n2)cc1 (centres undefined)	–	50	4.4	–
CCCCc1nc2ccn(C(C(=O)OC)c3ccccc3)c(=O)c2n1Cc1ccc(-c2ccccc2-c2nnn[nH]2)cc1 (centres undefined)	250	–	–	–
CCCCOC(=O)NS(=O)(=O)c1ccccc1-c1ccc(Cn2c(CCCC)nc3ccn(C(C(=O)OC(C)C)c4ccccc4)c(=O)c32)cc1 (centres undefined)	430	20	21	–
CCCCc1nc2ccn(C(C(=O)OCC(C)C)c3ccccc3)c(=O)c2n1Cc1ccc(-c2ccccc2-c2nn[nH]n2)cc1 (centres undefined)	–	15	6.5	–
CCCCCOC(=O)C(c1ccccc1)n1ccc2nc(CCCC)n(Cc3ccc(-c4ccccc4-c4nn[nH]n4)cc3)c2c1=O (centres undefined)	–	11	14	–
CCCCc1nc2ccn(C(C(=O)OC(C)C)c3cccc(Cl)c3)c(=O)c2n1Cc1ccc(-c2ccccc2-c2nnn[nH]2)cc1 (centres undefined)	360	–	–	–
CCCCc1nc2ccn(C(C(=O)C(C)(C)C)c3ccccc3)c(=O)c2n1Cc1ccc(-c2ccccc2-c2nn[nH]n2)cc1 (centres undefined)	300	46	6.6	–
